Experimental data as given in patent US12084434B2 (Scorpion Therapeutics, Inc., priority 2021, dated 2024).

test system: T47D pAKT (S473), PI3Kα H1047R mutation present; assay: HTRF pAKT-T47D; conditions: Homo sapiens, T47D, 1 h, read-out: T47D pAKT IC50 (nM);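 note: assay medium was RPMI with 10% FBS and 0.2 units/ml bovine insulin, without phenol red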

Row | Compound | IC50 [nM]
1 | CC(=O)Nc1ncc(NC(=O)N[C@H](c2oc3ccc(F)cc3c2C)C(C)C)cn1 [Compound 159] | < 1000

same assay, conditions: Homo sapiens, T47D, 1 h, read-out: T47D pAKT IC50 (nM), T47D.1 cells, pAKT (S473) HTRF, 1 hour

Row | Compound | IC50 [nM]
2 | Cc1c([C@@H](NC(=O)Nc2cnc(N3CC(C)(O)C3)nc2)C(F)(F)F)oc2ccc(F)cc12 [Compound 98, (R)-1-(2-(3-hydroxy-3-methylazetidin-1-yl)pyrimidin-5-yl)-3-(2,2,2-trifluoro-1-(5-fluoro-3-methylbenzofuran-2-yl)ethyl)urea] | < 1000
3 | Cc1c([C@H](C)NC(=O)Nc2cnc(N)nc2)oc2ccc(F)cc12 [Compound 101, (S)-1-(2-aminopyrimidin-5-yl)-3-(1-(5-fluoro-3-methylbenzofuran-2-yl)ethyl)urea] | 1000 to 5000
4 | Cc1c([C@@H](NC(=O)Nc2ccc3c(c2)C(=O)OC3)C(C)C)oc2ccc(F)cc12 [Compound 102, 3-[(1S)-1-(5-fluoro-3-methyl-1-benzofuran-2-yl)-2-methylpropyl]-1-(3-oxo-1H-2-benzofuran-5-yl)urea] | 1000 to 5000
5 | Cc1c([C@@H](NC(=O)Nc2ccc3c(c2)C(=O)N(C)C3)C(C)C)oc2ccc(F)cc12 [Compound 103] | 1000 to 5000
6 | Cc1c([C@@H](NC(=O)Nc2cccc(N3CCC3=O)c2)C(C)C)oc2ccc(F)cc12 [Compound 105] | 1000 to 5000
7 | Cc1c([C@@H](NC(=O)Nc2cnc(N3CCNCC3)nc2)C(C)C)oc2ccc(F)cc12 [Compound 106, (S)-1-(1-(5-fluoro-3-methylbenzofuran-2-yl)-2-methylpropyl)-3-(2-(piperazin-1-yl)pyrimidin-5-yl)urea] | 1000 to 5000
8 | Cc1c([C@@H](NC(=O)Nc2cnc(N3CCOCC3)nc2)C(C)C)oc2ccc(F)cc12 [Compound 107] | < 1000
9 | Cc1c([C@@H](NC(=O)Nc2ccc3nc[nH]c(=O)c3c2)C(C)C)oc2ccc(F)cc12 [Compound 124, (S)-1-(1-(5-fluoro-3-methylbenzofuran-2-yl)-2-methylpropyl)-3-(4-oxo-3,4-dihydroquinazolin-6-yl)urea] | 1000 to 5000
10 | Cc1c([C@@H](NC(=O)Nc2cccc(-c3nnnn3C)c2)C(C)C)oc2ccc(F)cc12 [Compound 125, (S)-1-(1-(5-fluoro-3-methylbenzofuran-2-yl)-2-methylpropyl)-3-(3-(1-methyl-1H-tetrazol-5-yl)phenyl)urea] | 1000 to 5000
11 | Cc1c([C@@H](NC(=O)Nc2ccc(Cl)c(S(C)(=O)=O)c2)C(C)C)oc2ccc(F)cc12 [Compound 126, (S)-1-(4-chloro-3-(methylsulfonyl)phenyl)-3-(1-(5-fluoro-3-methylbenzofuran-2-yl)-2-methylpropyl)urea] | 1000 to 5000
12 | Cc1c([C@@H](NC(=O)Nc2cnc(N3CC(S(C)(=O)=O)C3)nc2)C(C)C)oc2ccc(F)cc12 [Compound 128, (S)-1-(1-(5-fluoro-3-methylbenzofuran-2-yl)-2-methylpropyl)-3-(2-(3-(methylsulfonyl)azetidin-1-yl)pyrimidin-5-yl)urea] | 1000 to 5000
13 | Cc1c([C@@H](NC(=O)Nc2cnc(N3CC4(COC4)C3)nc2)C(C)C)oc2ccc(F)cc12 [Compound 135] | < 1000
14 | Cc1c([C@@H](NC(=O)Nc2cnc(NC3COC3)nc2)C(C)C)oc2ccc(F)cc12 [Compound 136] | < 1000
15 | Cc1c([C@@H](NC(=O)Nc2cnc(NCCCO)nc2)C(C)C)oc2ccc(F)cc12 [Compound 137] | < 1000
16 | COC1CN(c2ncc(NC(=O)N[C@H](c3oc4ccc(F)cc4c3C)C(C)C)cn2)C1 [Compound 138] | < 1000
17 | Cc1c([C@@H](NC(=O)Nc2cnc(N3CCNC(=O)C3)nc2)C(C)C)oc2ccc(F)cc12 [Compound 139] | < 1000
18 | Cc1c([C@@H](NC(=O)Nc2cnc(N3CCC(O)CC3)nc2)C(C)C)oc2ccc(F)cc12 [Compound 140] | < 1000
19 | Cc1c([C@@H](NC(=O)Nc2cnc(N3CCC(C)(O)CC3)nc2)C(C)C)oc2ccc(F)cc12 [Compound 141] | < 1000
20 | CCC1(O)CN(c2ncc(NC(=O)N[C@H](c3oc4ccc(F)cc4c3C)C(C)C)cn2)C1 [Compound 144] | < 1000
21 | Cc1c([C@@H](NC(=O)Nc2cnc(N3CCSCC3)nc2)C(C)C)oc2ccc(F)cc12 [Compound 145, 3-[(1S)-1-(5-fluoro-3-methyl-1-benzofuran-2-yl)-2-methylpropyl]-1-[2-(thiomorpholin-4-yl)pyrimidin-5-yl]urea] | < 1000
22 | Cc1c([C@@H](NC(=O)Nc2cnc(N3CCS(=O)(=O)CC3)nc2)C(C)C)oc2ccc(F)cc12 [Compound 146, 1-[2-(1,1-dioxo-1lambda6-thiomorpholin-4-yl)pyrimidin-5-yl]-3-[(1S)-1-(5-fluoro-3-methyl-1-benzofuran-2-yl)-2-methylpropyl]urea] | < 1000
23 | Cc1c([C@@H](NC(=O)Nc2cnc(N3CCS(=N)(=O)CC3)nc2)C(C)C)oc2ccc(F)cc12 [Compound 147, 3-[(1S)-1-(5-fluoro-3-methyl-1-benzofuran-2-yl)-2-methylpropyl]-1-[2-(1-imino-1-oxo-1lambda6-thiomorpholin-4-yl)pyrimidin-5-yl]urea] | < 1000
24 | Cc1c([C@@H](NC(=O)Nc2cnc(N3CCNC3=O)nc2)C(C)C)oc2ccc(F)cc12 [Compound 161, 3-[(1S)-1-(5-fluoro-3-methyl-1-benzofuran-2-yl)-2-methylpropyl]-1-[2-(2-oxoimidazolidin-1-yl)pyrimidin-5-yl]urea] | < 1000
25 | Cc1c([C@@H](NC(=O)Nc2cnc(N3CC4(CCO4)C3)nc2)C(C)C)oc2ccc(F)cc12 [Compound 164, 3-[(1S)-1-(5-fluoro-3-methyl-1-benzofuran-2-yl)-2-methylpropyl]-1-(2-{1-oxa-6-azaspiro[3.3]heptan-6-yl}pyrimidin-5-yl)urea] | < 1000
26 | Cc1c([C@@H](NC(=O)Nc2cnc(N3CC4(CCCO4)C3)nc2)C(C)C)oc2ccc(F)cc12 [Compound 165, 3-[(1S)-1-(5-fluoro-3-methyl-1-benzofuran-2-yl)-2-methylpropyl]-1-(2-{5-oxa-2-azaspiro[3.4]octan-2-yl}pyrimidin-5-yl)urea] | < 1000
27 | Cc1c([C@@H](NC(=O)Nc2cnc(N3CC4(CNC(=O)CO4)C3)nc2)C(C)C)oc2ccc(F)cc12 [Compound 166, 3-[(1S)-1-(5-fluoro-3-methyl-1-benzofuran-2-yl)-2-methylpropyl]-1-(2-{7-oxo-5-oxa-2,8-diazaspiro[3.5]nonan-2-yl}pyrimidin-5-yl)urea] | < 1000
28 | Cc1c([C@@H](NC(=O)Nc2cnc(N3CC(OC(F)F)C3)nc2)C(C)C)oc2ccc(F)cc12 [Compound 167, 1-{2-[3-(difluoromethoxy)azetidin-1-yl]pyrimidin-5-yl}-3-[(1S)-1-(5-fluoro-3-methyl-1-benzofuran-2-yl)-2-methylpropyl]urea] | < 1000
29 | Cc1c([C@@H](NC(=O)Nc2cnc(N3CC4(COC4)C3)nc2)C(F)(F)F)oc2ccc(F)cc12 [Compound 168, (R)-1-(2-(2-oxa-6-azaspiro[3.3]heptan-6-yl)pyrimidin-5-yl)-3-(2,2,2-trifluoro-1-(5-fluoro-3-methylbenzofuran-2-yl)ethyl)urea] | < 1000

Other lines, results leading:

Row | IC50 [nM] | Compound
30 | < 1000 | Cc1c([C@@H](NC(=O)Nc2cnc(N3CC(C)(O)C3)nc2)C(C)C)oc2ccc(F)cc12 [Compound 96, (S)-1-(1-(5-fluoro-3-methylbenzofuran-2-yl)-2-methylpropyl)-3-(2-(3-hydroxy-3-methylazetidin-1-yl)pyrimidin-5-yl)urea]
31 | < 1000 | CNC(=O)c1cc(NC(=O)N[C@H](c2oc3ccc(F)cc3c2C)C(C)C)ccc1OC [Compound 104]
32 | 1000 to 5000 | Cc1c([C@@H](NC(=O)Nc2cnc(C(=O)N(C)C)s2)C(C)C)oc2ccc(F)cc12 [Compound 121, (S)-5-(3-(1-(5-fluoro-3-methylbenzofuran-2-yl)-2-methylpropyl)ureido)-N,N-dimethylthiazole-2-carboxamide]
33 | 1000 to 5000 | Cc1c([C@@H](NC(=O)Nc2csc(C(N)=O)c2)C(C)C)oc2ccc(F)cc12 [Compound 123, (S)-4-(3-(1-(5-fluoro-3-methylbenzofuran-2-yl)-2-methylpropyl)ureido)thiophene-2-carboxamide]
34 | < 1000 | Cc1c([C@@H](NC(=O)Nc2cnc(NCC(N)=O)nc2)C(C)C)oc2ccc(F)cc12 [Compound 134, (S)-2-((5-(3-(1-(5-fluoro-3-methylbenzofuran-2-yl)-2-methylpropyl)ureido)pyrimidin-2-yl)amino)acetamide]
35 | < 1000 | Cc1c([C@@H](NC(=O)Nc2cnc(NCC(C)(C)O)nc2)C(C)C)oc2ccc(F)cc12 [Compound 142]
36 | < 1000 | Cc1c([C@@H](NC(=O)Nc2cnc(NC[C@@H](C)O)nc2)C(C)C)oc2ccc(F)cc12 [Compound 143]
37 | < 1000 | COc1ncc(NC(=O)N[C@H](c2oc3ccc(F)cc3c2C)C(C)C)cn1 [Compound 150, (S)-1-(1-(5-fluoro-3-methylbenzofuran-2-yl)-2-methylpropyl)-3-(2-methoxypyrimidin-5-yl)urea]
38 | < 1000 | Cc1c([C@@H](NC(=O)Nc2cnc(OCCO)nc2)C(C)C)oc2ccc(F)cc12 [Compound 151, (S)-1-(1-(5-fluoro-3-methylbenzofuran-2-yl)-2-methylpropyl)-3-(2-(2-hydroxyethoxy)pyrimidin-5-yl)urea]
39 | < 1000 | Cc1c([C@@H](NC(=O)Nc2cnc(OCC3(O)CC3)nc2)C(C)C)oc2ccc(F)cc12 [Compound 152]
40 | < 1000 | Cc1c([C@@H](NC(=O)Nc2cnc3nccn3c2)C(C)C)oc2ccc(F)cc12 [Compound 160, (S)-1-(1-(5-fluoro-3-methylbenzofuran-2-yl)-2-methylpropyl)-3-(imidazo[1,2-a]pyrimidin-6-yl)urea]
41 | < 1000 | COC(=O)Nc1ncc(NC(=O)N[C@H](c2oc3ccc(F)cc3c2C)C(C)C)cn1 [Compound 162, methyl N-[5-({[(1S)-1-(5-fluoro-3-methyl-1-benzofuran-2-yl)-2-methylpropyl]carbamoyl}amino)pyrimidin-2-yl]carbamate]
42 | < 1000 | CNC(=O)C1CN(c2ncc(NC(=O)N[C@H](c3oc4ccc(F)cc4c3C)C(C)C)cn2)C1 [Compound 163, 1-[5-({[(1S)-1-(5-fluoro-3-methyl-1-benzofuran-2-yl)-2-methylpropyl]carbamoyl}amino)pyrimidin-2-yl]-N-methylazetidine-3-carboxamide]
